Experimental data as given in patent US8178668B2, “2-aminopyridine kinase inhibitors” (OSI Pharmaceuticals, LLC, priority 2008, dated 2012).
Where a name gives a salt, the structure may show the parent alone.

Experiments:
RON (human) = RON (human) (Homo sapiens, UniProt Q04912); assay: RON kinase AlphaScreen assay (Km of ATP); type: biochemical; settings: ATP at Km; at least duplicate experiments
Method in brief: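 AlphaScreen with PT66 donor/acceptor beads, read after 1 h, detected phosphorylation of biotinylated poly(Glu,Tyr) by human RON. Enzyme-started reactions ran 30 min at room temperature with ATP at Km. Buffer was HEPES pH 7.4 with MgCl2, glycerol, vanadate and 1% DMSO.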

MET (human) = MET (human) (Homo sapiens, UniProt P08581); assay: MET kinase AlphaScreen assay (Km of ATP); type: biochemical; settings: ATP at Km; at least duplicate experiments
Method in brief: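 AlphaScreen detection with PT66 beads (1 h) follows a 60 min room-temperature MET reaction. Substrate is 200 ng/μL biotinylated poly(Glu,Tyr), with ATP set at an enzyme-optimized concentration. Buffer is HEPES pH 7.4 with MgCl2, MnCl2 and 0.334 mM vanadate, compounds at 1% DMSO.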

RON (human), sequence (Q04912 25-1400): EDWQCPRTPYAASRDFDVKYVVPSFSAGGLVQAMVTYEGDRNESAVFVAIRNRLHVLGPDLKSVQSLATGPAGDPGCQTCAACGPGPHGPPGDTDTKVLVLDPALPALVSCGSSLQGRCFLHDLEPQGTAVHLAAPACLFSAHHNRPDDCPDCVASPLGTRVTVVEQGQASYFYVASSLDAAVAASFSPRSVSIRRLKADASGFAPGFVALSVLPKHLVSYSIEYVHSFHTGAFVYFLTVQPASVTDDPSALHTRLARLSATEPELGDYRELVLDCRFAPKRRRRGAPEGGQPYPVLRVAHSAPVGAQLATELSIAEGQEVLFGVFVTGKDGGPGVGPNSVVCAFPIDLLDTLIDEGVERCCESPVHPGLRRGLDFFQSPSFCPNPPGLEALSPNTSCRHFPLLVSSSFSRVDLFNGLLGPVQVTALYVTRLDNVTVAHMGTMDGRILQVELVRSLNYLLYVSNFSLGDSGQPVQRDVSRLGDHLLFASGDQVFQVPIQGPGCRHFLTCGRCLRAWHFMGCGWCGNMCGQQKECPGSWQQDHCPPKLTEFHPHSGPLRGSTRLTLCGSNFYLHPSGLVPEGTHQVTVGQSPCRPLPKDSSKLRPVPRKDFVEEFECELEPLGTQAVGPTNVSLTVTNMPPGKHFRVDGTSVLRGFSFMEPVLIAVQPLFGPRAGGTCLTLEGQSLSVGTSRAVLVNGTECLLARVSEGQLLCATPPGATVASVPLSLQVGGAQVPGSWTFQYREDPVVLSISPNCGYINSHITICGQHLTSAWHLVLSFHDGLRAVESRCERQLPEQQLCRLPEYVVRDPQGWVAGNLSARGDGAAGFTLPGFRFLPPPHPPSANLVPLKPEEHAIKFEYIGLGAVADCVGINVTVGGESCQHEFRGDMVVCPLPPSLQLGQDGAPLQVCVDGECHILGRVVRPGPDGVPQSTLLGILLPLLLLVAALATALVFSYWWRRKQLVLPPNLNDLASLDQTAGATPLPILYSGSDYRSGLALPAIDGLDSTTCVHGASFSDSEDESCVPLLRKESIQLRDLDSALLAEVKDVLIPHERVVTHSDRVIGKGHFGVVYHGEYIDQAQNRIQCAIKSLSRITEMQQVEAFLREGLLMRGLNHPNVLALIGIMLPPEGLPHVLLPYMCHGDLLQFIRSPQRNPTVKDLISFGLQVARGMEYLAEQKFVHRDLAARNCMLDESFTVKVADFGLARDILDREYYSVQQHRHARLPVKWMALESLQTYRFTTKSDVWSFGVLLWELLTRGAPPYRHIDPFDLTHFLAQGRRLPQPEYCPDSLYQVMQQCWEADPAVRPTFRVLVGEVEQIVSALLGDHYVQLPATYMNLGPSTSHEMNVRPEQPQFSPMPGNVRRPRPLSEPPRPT
MET (human), sequence (P08581 25-1390): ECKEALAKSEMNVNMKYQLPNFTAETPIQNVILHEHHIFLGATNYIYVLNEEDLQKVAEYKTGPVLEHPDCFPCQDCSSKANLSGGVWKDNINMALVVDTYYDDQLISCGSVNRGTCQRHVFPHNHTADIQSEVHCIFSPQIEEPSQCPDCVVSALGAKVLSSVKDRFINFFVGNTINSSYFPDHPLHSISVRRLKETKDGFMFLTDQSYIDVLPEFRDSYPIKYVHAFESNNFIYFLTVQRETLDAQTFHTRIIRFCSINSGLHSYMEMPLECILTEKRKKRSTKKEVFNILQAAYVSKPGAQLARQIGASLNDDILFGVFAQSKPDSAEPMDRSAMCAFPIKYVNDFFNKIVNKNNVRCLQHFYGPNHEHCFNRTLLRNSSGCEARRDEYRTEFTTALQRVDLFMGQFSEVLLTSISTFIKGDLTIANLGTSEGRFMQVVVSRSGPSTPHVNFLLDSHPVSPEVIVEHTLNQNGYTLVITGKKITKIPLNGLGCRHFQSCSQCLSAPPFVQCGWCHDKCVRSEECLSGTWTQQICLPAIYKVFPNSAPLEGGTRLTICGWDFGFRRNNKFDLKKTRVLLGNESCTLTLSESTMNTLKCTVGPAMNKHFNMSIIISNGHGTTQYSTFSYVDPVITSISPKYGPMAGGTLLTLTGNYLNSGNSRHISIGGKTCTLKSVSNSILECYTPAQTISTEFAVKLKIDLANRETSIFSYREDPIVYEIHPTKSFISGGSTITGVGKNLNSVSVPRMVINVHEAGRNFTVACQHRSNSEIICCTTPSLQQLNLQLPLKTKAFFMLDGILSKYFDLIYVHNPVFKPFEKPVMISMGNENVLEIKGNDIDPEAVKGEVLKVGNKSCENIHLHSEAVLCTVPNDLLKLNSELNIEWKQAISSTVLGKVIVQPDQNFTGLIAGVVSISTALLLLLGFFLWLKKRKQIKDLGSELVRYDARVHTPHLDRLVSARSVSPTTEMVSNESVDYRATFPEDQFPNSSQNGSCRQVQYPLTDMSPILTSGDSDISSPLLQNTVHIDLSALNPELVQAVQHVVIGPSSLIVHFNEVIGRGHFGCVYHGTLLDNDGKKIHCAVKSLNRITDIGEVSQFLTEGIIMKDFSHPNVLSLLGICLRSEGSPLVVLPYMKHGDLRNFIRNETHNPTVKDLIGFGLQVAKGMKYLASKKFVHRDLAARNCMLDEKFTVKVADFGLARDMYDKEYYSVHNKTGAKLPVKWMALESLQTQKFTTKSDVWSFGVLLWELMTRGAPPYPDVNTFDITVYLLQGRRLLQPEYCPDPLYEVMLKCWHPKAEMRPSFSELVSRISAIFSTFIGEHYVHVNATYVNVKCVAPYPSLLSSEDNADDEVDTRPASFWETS

SMILES	IC50 (RON (human)) [nM]	IC50 (MET (human)) [nM]
Nc1ncc(C2=CCNCC2)cc1-c1nc2ccccc2s1 [Example 232, 5-(1,3-Benzothiazol-2-yl)-1′,2′,3′,6′-tetrahydro-3,4′-bipyridin-6-amine]	1000 to 20000	100 to 1000
Nc1ncc(-c2cccc(O)c2)cc1-c1nc2ccccc2s1 [Example 233, 3-[6-Amino-5-(1,3-benzothiazol-2-yl)pyridin-3-yl]phenol]	> 20000	1000 to 20000
COC(=O)COc1cccc(-c2cnc(N)c(-c3nc4ccccc4s3)c2)c1 [Example 234, Methyl 3-[6-amino-5-(1,3-benzothiazol-2-yl)pyridin-3-yl]phenoxyacetate]	> 20000	1000 to 20000
Nc1ncc(-c2cccc(OCC(=O)O)c2)cc1-c1nc2ccccc2s1 [Example 235, [3-(6-Amino-5-benzothiazol-2-yl-pyridin-3-yl)-phenoxy]acetic acid]	1000 to 20000	1000 to 20000
CCOC(=O)COc1ccc(-c2cnc(N)c(-c3nc4ccccc4s3)c2)cc1 [Example 236, Ethyl 4-[6-amino-5-(1,3-benzothiazol-2-yl)pyridin-3-yl]phenoxyacetate]	1000 to 20000	1000 to 20000
Nc1ncc(-c2ccc(OCC(=O)O)cc2)cc1-c1nc2ccccc2s1 [Example 237, 4-[6-Amino-5-(1,3-benzothiazol-2-yl)pyridin-3-yl]phenoxyacetic acid]	1000 to 20000	100 to 1000
CNC(=O)COc1ccc(-c2cnc(N)c(-c3nc4ccccc4s3)c2)cc1 [Example 238, 2-[4-(6-Amino-5-benzothiazol-2-ylpyridin-3-yl)-phenoxy]-N-methylacetamide]	1000 to 20000	1000 to 20000
CN(C)C(=O)COc1ccc(-c2cnc(N)c(-c3nc4ccccc4s3)c2)cc1 [Example 239, 2-[4-(6-Amino-5-benzothiazol-2-ylpyridin-3-yl)-phenoxy]-N,N-dimethylacetamide]	1000 to 20000	1000 to 20000
Nc1ncc(-c2ccc(OCC(=O)NCc3ccccc3)cc2)cc1-c1nc2ccccc2s1 [Example 240, 2-[4-(6-Amino-5-benzothiazol-2-ylpyridin-3-yl)-phenoxy]-N-benzylacetamide]	1000 to 20000	1000 to 20000
Nc1ncc(-c2ccc(OCC(=O)N3CCCC3)cc2)cc1-c1nc2ccccc2s1 [Example 241, 2-[4-(6-Amino-5-benzothiazol-2-ylpyridin-3-yl)phenoxy]-1-pyrrolidin-1-ylethanone]	> 20000	1000 to 20000
Nc1ncc(-c2ccc(OCC(=O)NCCCN3CCCC3=O)cc2)cc1-c1nc2ccccc2s1 [Example 242, 2-[4-(6-Amino-5-benzothiazol-2-ylpyridin-3-yl)-phenoxy]-N-[3-(2-oxopyrrolidin-1-yl)-propyl]acetamide]	1000 to 20000	1000 to 20000
Nc1ncc(-c2ccc(OCC(=O)NC3CCCCC3O)cc2)cc1-c1nc2ccccc2s1 (stereo not drawn) [Example 243, 2-[4-(6-Amino-5-benzothiazol-2-ylpyridin-3-yl)phenoxy]-N-(2-hydroxycyclohexyl)acetamide]	> 20000	1000 to 20000
Nc1ncc(-c2ccc(OCC(=O)N3CCOCC3)cc2)cc1-c1nc2ccccc2s1 [Example 244, 2-[4-(6-Amino-5-benzothiazol-2-ylpyridin-3-yl)phenoxy]-1-morpholin-4-ylethanone]	> 20000	1000 to 20000
Nc1ncc(-c2ccc(OCC(=O)NCC3CCCCC3)cc2)cc1-c1nc2ccccc2s1 [Example 245, 2-[4-(6-Amino-5-benzothiazol-2-ylpyridin-3-yl)phenoxy]-N-cyclohexylmethylacetamide]	> 20000	1000 to 20000
Nc1ncc(-c2ccc(OCC(=O)N3CCN(CCO)CC3)cc2)cc1-c1nc2ccccc2s1 [Example 246, 2-[4-(6-Amino-5-benzothiazol-2-yl-pyridin-3-yl)phenoxy]-1-[4-(2-hydroxyethyl)piperazin-1-yl]ethanone]	1000 to 20000	100 to 1000
Nc1ncc(-c2cnn(C3CCNCC3)c2)cc1-c1nc2cccc(-c3cn[nH]c3)c2s1 [Example 247, 5-(1-Piperidin-4-yl-1H-pyrazol-4-yl)-3-[7-(1H-pyrazol-4-yl)benzothiazol-2-yl]pyridin-2-ylamine dihydrochloride]	100 to 1000	≤ 100
Cn1cc(-c2cccc3nc(-c4cc(-c5cnn(C6CCNCC6)c5)cnc4N)sc23)cn1 [Example 248, 3-[7-(1-Methyl-1H-pyrazol-4-yl)benzothiazol-2-yl]-5-(1-piperidin-4-yl-1H-pyrazol-4-yl)pyridin-2-ylamine dihydrochloride]	100 to 1000	100 to 1000
Nc1ncc(-c2cnn(C3CCNCC3)c2)cc1-c1nc2cccc(-c3ccc[nH]3)c2s1 [Example 249, 5-(1-Piperidin-4-yl-1H-pyrazol-4-yl)-3-[7-(1H-pyrrol-2-yl)benzothiazol-2-yl]pyridin-2-ylamine dihydrochloride]	100 to 1000	≤ 100
Nc1ncc(-c2cnn(C3CCNCC3)c2)cc1-c1nc2cccc(-c3cccnc3)c2s1 [Example 250, 5-(1-Piperidin-4-yl-1H-pyrazol-4-yl)-3-(7-pyridin-3-ylbenzothiazol-2-yl)pyridin-2-ylamine dihydrochloride]	100 to 1000	≤ 100
Nc1ncc(-c2cnn(C3CCNCC3)c2)cc1-c1nc2cccc(-c3cc[nH]c3)c2s1 [Example 251, 5-(1-Piperidin-4-yl-1H-pyrazol-4-yl)-3-[7-(1H-pyrrol-3-yl)benzothiazol-2-yl]pyridin-2-ylamine trifluoroacetate]	100 to 1000	100 to 1000
Nc1ncc(-c2cnn(C3CCNCC3)c2)cc1-c1nc2ccc(F)cc2s1 [Example 252, 3-(6-Fluorobenzothiazol-2-yl)-5-(1-piperidin-4-yl-1H-pyrazol-4-yl)-pyridin-2-ylamine]	100 to 1000	100 to 1000
Nc1ncc(-c2cnn(C3CCNCC3)c2)cc1-c1nc2ccc(Cl)cc2s1 [Example 253, 3-(6-Chlorobenzothiazol-2-yl)-5-(1-piperidin-4-yl-1H-pyrazol-4-yl)-pyridin-2-ylamine]	100 to 1000	100 to 1000
Cc1ccc2nc(-c3cc(-c4cnn(C5CCNCC5)c4)cnc3N)sc2c1 [Example 254, 3-(6-Methylbenzothiazol-2-yl)-5-(1-piperidin-4-yl-1H-pyrazol-4-yl)-pyridin-2-ylamine]	100 to 1000	100 to 1000
COc1ccc2nc(-c3cc(-c4cnn(C5CCNCC5)c4)cnc3N)sc2c1 [Example 255, 3-(6-Methoxybenzothiazol-2-yl)-5-(1-piperidin-4-yl-1H-pyrazol-4-yl)-pyridin-2-ylamine]	100 to 1000	100 to 1000
Nc1ncc(-c2cnn(C3CCNCC3)c2)cc1-c1nc2c(F)cccc2s1 [Example 256, 3-(4-Fluorobenzothiazol-2-yl)-5-(1-piperidin-4-yl-1H-pyrazol-4-yl)-pyridin-2-ylamine]	100 to 1000	≤ 100
Cc1cccc2sc(-c3cc(-c4cnn(C5CCNCC5)c4)cnc3N)nc12 [Example 257, 3-(4-Methylbenzothiazol-2-yl)-5-(1-piperidin-4-yl-1H-pyrazol-4-yl)-pyridin-2-ylamine]	100 to 1000	100 to 1000
Nc1ncc(-c2cnn(C3CCNCC3)c2)cc1-c1nc2cc(Cl)ccc2s1 [Example 258, 3-(5-Chlorobenzothiazol-2-yl)-5-(1-piperidin-4-yl-1H-pyrazol-4-yl)-pyridin-2-ylamine]	100 to 1000	≤ 100
